{
  "source": "patent US20110059979A1",
  "about": "“Piperidine/Cyclohexane Carboxamide Derivatives For Use as Vanilloid Receptor Modulators” (GLAXO GROUP LIMITED, priority 2003, published 2011)",
  "tested_on": "FCA-Induced Hyperalgesia",
  "assay": "FCA-Induced Hyperalgesia in the Guinea Pig",
  "assay_type": "in vivo",
  "settings": "dose of 5 mg/kg po",
  "description": "(b) FCA-Induced Hyperalgesia in the Guinea Pig Compounds having a pKb>7.0 in vitro, according to model (a) were tested in this model of hyperalgesia (see WO 2004/024710 for details) and shown to be active.",
  "data": [
    {"smiles": "Cn1c(=O)ccc2c(NC(=O)C3CCN(c4ccc(Cl)cc4)CC3)cccc21", "note": "[Example 1, 1-(4-Chlorophenyl)-N-(1-methyl-2-oxo-1,2-dihydro-5-quinolinyl)-4-piperidinecarboxamide]", "values": [
      {"measurement": "activity in FCA-induced hyperalgesia model", "value": "significant activity"}
    ]}
  ]
}
